From patent publication US20070021303A1, “Safening method” (priority 2004, published 2007)

How the values were obtained:
onion [1] = test: Seed treatment of onion with safener (encrustment with rotostat), early post-emergence application of ioxynil; format: in vivo, Allium cepa; settings: var. Brioso
Experimental: (§1) Onion (Allium cepa var. Brioso) seeds were encrusted in a commercial seed coating machine. Approximately 1 ml of binder was added. Subsequently, a small amount of encrustment powder (X % Naphthalic Anhydride+[100−X]% inert filler material) was added. Binder was added again and this procedure was repeated until all encrustment powder was stuck to the seeds. Seeds were dried subsequently.
(§2) The differently-treated seeds were sown in trays. After 9 days, the seedlings were sprayed with 1.0 g/l ioxynil using an atomizer. A dosage of 3 ml per tray was applied, equalizing 300 g.a.i./hectare. At 3 days after spraying the number of collapsed seedlings was counted.

leek [2] = test: Post-emergence application of herbicide and safener by the tank mix method, leek; format: in vivo
From the text: (§3) Seeds of leek plants were sown in sandy loam soil in round plastic pots of a diameter of 7 cm and covered with a layer of sandy loam of a thickness of about 0.2 cm. The pots were placed in a greenhouse under favorable growth conditions for until the plants had reached the 2-leaves growth stage. Then, a herbicide or—in a parallel experiment—a tank-mix of the herbicide and a safener (using same basic formulation in each case) was applied to the green parts of the plants and the uncovered part of the soil surface with a spray bar using a water application rate of 300 liters per hectare.
(§4) The pots were placed in a greenhouse under favorable growth conditions. Visual scoring of the herbicidal action was carried out 21 or 40 days after treatment with the herbicide or the tank-mix, respectively. Evaluation was carried out on a percentage basis by comparison with untreated control plants (0%=no noticeable effect compared with the untreated plant, 100%=treated plant dies).

leek [3] = test: Seed treatment of leek with safener (encrustment method), early post-emergence application of ioxynil; format: in vivo, allium porrum
Experimental: Leek (allium porrum var. Parton) seeds were put in an erlenmeyer flask with a spinning stirring magnet. A droplet of binder (glue) was added and distributed evenly amongst the seeds. Subsequently, a small amount of encrustment powder (X % mefenpyr-diethyl+[100−X]% inert filler material) was added and mixed through the seeds using the stirring magnet. A droplet of binder was added again and this procedure was repeated until all encrustment powder was stuck to the seeds. Seeds were dried subsequently.
The differently-treated seeds were sown in trays. After 9 days, the seedlings were sprayed with 4.0 g/l ioxynil using an atomizer. A dosage of 3 ml per tray was applied, equalizing 1200 g.a.i./hectare. At 6 days after spraying the number of collapsed seedlings was counted.

leek [4] = test: Fluxofenim safening ioxynil damage in leek (seed treatment); format: in vivo, allium porrum
leek [5] = test: Oxabetrinil safening ioxynil damage in leek (seed treatment); format: in vivo, allium porrum
onion [6] = test: Post-emergence application of herbicide and safener by the tank mix method, onion; format: in vivo
From the text: as §3, with “onion” for “leek”
as §4

leek [7] = test: Seed treatment of leek with safener (seed coating with rotostat system), field, early post-emergence application of ioxynil; format: in vivo, allium porrum
Experimental: (§5) Leek (allium porrum var. Shelton) seeds were coated in a commercial seed coating machine. Gradually, binder solution with X g of mefenpyr-diethyl was added. Seeds were dried subsequently.
The differently-treated seeds were sown in the field using commercial sowing equipment. After 25 days, the seedlings were sprayed with a standard formulation of ioxynil (®Totril) at an application rate of 112 g a.i./ha ioxynil. At 15 days after spraying the number of collapsed seedlings was counted.

onion [8] = test: Mefenpyr safening oxyfluorfen damage in onion (seed treatment); format: in vivo, Allium cepa; settings: variety Diamante, oxyfluorfen (Goal) 7.5 g a.i./ha 9 days after seeding
Experimental: as §1, §2
Onion (Allium cepa var. Diamante) were treated with safener, sown, treated with a herbicide and evaluated as described in Example 5 with the difference that the herbicide is oxyfluorfen and the safener is mefenpyr-diethyl.

onion [9] = test: Benoxacor safening bromoxynil damage in onion (seed treatment); format: in vivo, Allium cepa; settings: variety Diamante; safener 0 g a.i./kg seed; bromoxynil-octanoate (Buctril) 25 g a.i./ha 10 days after seeding
Experimental: as §1
The differently-treated seeds were sown in trays. After 9 days, the seedlings were sprayed with 1.0 g/l ioxynil using an atomizer. A dosage of 3 ml per tray was applied, equalizing 300 g.a.i./hectare. […]
Onion (Allium cepa var. Diamante) were treated with safener, sown, treated with a herbicide and evaluated as described in Example 5 with the difference that the herbicide is bromoxynil-octanoate and the safener is benoxacor.

leek [10] = test: Mefenpyr safening Prometryn damage in leek (seed treatment); format: in vivo, allium porrum; settings: prometryn (Gesagard) 750 g a.i./ha 10 days after seeding
Experimental: as §5
The differently-treated seeds were sown in the field using commercial sowing equipment. […]
Leek seeds (allium porrum, var. Shelton or Parton) were treated with safener, sown, treated with a herbicide and evaluated as described in Example 6 with the difference that the herbicide is prometryn.

SMILES: N#Cc1cc(I)c(O)c(I)c1 [H1, 4-hydroxy-3,5-di-iodobenzonitrile]
- Damage to onion (in %) 3 DAT (onion [1]; no safener, ioxynil 300 g a.i./ha sprayed 9 days after seeding, collapsed seedlings 3 DAT): 57%
- Damage to leek (in %) variety Harston (leek [2]; in vivo): 40%
- Damage to leek (in %) variety Kenton (leek [2]; in vivo): 55%
- Damage to leek (in %) 6 DAT (leek [3]; in vivo): 52%
- Damage to seedling (% collapsed) at 5 DAT (leek [4]; in vivo): 16%
- Damage to seedling (% collapsed) at 7 DAT (leek [5]; in vivo): 45%
- Damage to onion (in %) variety Blanco Duro (onion [6]; in vivo): 55%
- Damage to onion (in %) variety Brioso (onion [6]; in vivo): 45%
- Damage to leek (in %) 15 DAT (leek [7]; in vivo): 6%

SMILES: CON(C)C(=O)Nc1ccc(Cl)c(Cl)c1 [H2, linuron]
- Damage to leek (in %) variety Harston (leek [2]; variety Harston, 250 g a.i./ha, scoring 40 DAT): 20%
- Damage to leek (in %) variety Kenton (leek [2]; variety Kenton, 250 g a.i./ha, scoring 40 DAT): 20%
- Damage to onion (in %) variety Blanco Duro (onion [6]; variety Blanco Duro, 250 g a.i./ha, scoring 40 DAT): 100%
- Damage to onion (in %) variety Brioso (onion [6]; variety Brioso, 250 g a.i./ha, scoring 40 DAT): 30%

SMILES: COC(=O)c1ccc(CNS(C)(=O)=O)cc1S(=O)(=O)NC(=O)Nc1nc(OC)cc(OC)n1 [H3, methyl 2-[3-(4,6-dimethoxypyrimidin-2-yl)ureidosulfonyl]-4-methanesulfonylaminomethylbenzoate]
- Damage to leek (in %) variety Harston (leek [2]; variety Harston, 50 g a.i./ha, scoring 40 DAT): 50%
- Damage to leek (in %) variety Kenton (leek [2]; variety Kenton, 50 g a.i./ha, scoring 40 DAT): 45%
- Damage to onion (in %) variety Blanco Duro (onion [6]; in vivo): 70%
- Damage to onion (in %) variety Brioso (onion [6]; in vivo): 50%

SMILES: COc1cc(OC)nc(NC(=O)NS(=O)(=O)c2cc(NC=O)ccc2C(=O)N(C)C)n1 [H4, N,N-dimethyl-2-[3-(4,6-dimethoxypyrimidin-2-yl)ureidosulfonyl]-4-formylaminobenzamide]
- Damage to leek (in %) variety Harston (leek [2]; in vivo): 50%
- Damage to leek (in %) variety Kenton (leek [2]; in vivo): 50%
- Damage to onion (in %) variety Blanco Duro (onion [6]; in vivo): 10%
- Damage to onion (in %) variety Brioso (onion [6]; in vivo): 30%

SMILES: CCOc1cc(Oc2ccc(C(F)(F)F)cc2Cl)ccc1[N+](=O)[O-] [H6, oxyfluorfen]
- Damage to seedling (% collapsed) at 5 DAT (onion [8]; safener 0 g a.i./kg seed): 83%

SMILES: CCCCCCCC(=O)Oc1c(Br)cc(C#N)cc1Br [H7, bromoxynil-octanoate]
- Damage to seedling (% collapsed) at 5 DAT (onion [9]): 19%

SMILES: FC(F)(F)C(=NOCC1OCCO1)c1ccc(Cl)cc1 [fluxofenim, 1-(4-chlorophenyl)-2,2,2-trifluoro-1-ethanone O-(1,3-dioxolan-2-ylmethyl)oxime]
- Damage to seedling (% collapsed) at 5 DAT (leek [4]; variety Shelton, safener fluxofenim 1 g a.i./kg seed, ioxynil (Totril) 112 g a.i./ha 10 days after seeding): 10%
- Damage to seedling (% collapsed) at 5 DAT (leek [4]; variety Shelton, safener fluxofenim 2 g a.i./kg seed, ioxynil (Totril) 112 g a.i./ha 10 days after seeding): 6%

SMILES: CCOC(=O)C1=NN(c2ccc(Cl)cc2Cl)C(C)(C(=O)OCC)C1 (centres unmarked) [mefenpyr-diethyl, ethyl 1-(2,4-dichlorophenyl)-5-(ethoxycarbonyl)-5-methyl-2-pyrazoline-3-carboxylate]
- damage (collapsed seedlings) versus control-treated seedlings (leek [3]; var. Parton, mefenpyr seed treatment, then ioxynil 1200 g a.i./ha, 6 days after application): significantly less damage
- Damage to seedling (% collapsed) at 6 DAT (leek [10]; variety Parton, safener mefenpyr-diethyl 1 g a.i./kg seed): 3%
- Damage to seedling (% collapsed) at 6 DAT (leek [10]; variety Parton, safener mefenpyr-diethyl 2 g a.i./kg seed): 1%
- Damage to seedling (% collapsed) at 6 DAT (leek [10]; variety Shelton, safener mefenpyr-diethyl 1 g a.i./kg seed): 2%
- Damage to seedling (% collapsed) at 6 DAT (leek [10]; variety Shelton, safener mefenpyr-diethyl 2 g a.i./kg seed): 1%
- Damage to seedling (% collapsed) at 5 DAT (onion [8]; safener mefenpyr-diethyl 2 g a.i./kg seed): 64%
- Damage to seedling (% collapsed) at 5 DAT (onion [8]; safener mefenpyr-diethyl 4 g a.i./kg seed): 49%
- Damage to seedling (% collapsed) at 5 DAT (onion [8]; safener mefenpyr-diethyl 8 g a.i./kg seed): 39%
- Damage to leek (in %) 15 DAT (leek [7]; var. Shelton, field, ST3 = seed treatment 2.0 g a.i./kg mefenpyr-diethyl, ioxynil 112 g a.i./ha 25 days after seeding, 15 DAT): significantly reduced the amount of damage

SMILES: O=C1OC(=O)c2cccc3cccc1c23 [naphthalic anhydride, 1,8-naphthalenedicarboxylic anhydride]
- damage (collapsed seedlings) versus control-treated seedlings (onion [1]; naphthalic anhydride seed treatment, then ioxynil 300 g a.i./ha, after 3 days): significantly less damage

SMILES: N#C/C(=N\OCC1OCCO1)c1ccccc1 [oxabetrinil, (Z)-1,3-dioxolan-2-ylmethoxyimino(phenyl)-acetonitrile]
- Damage to seedling (% collapsed) at 7 DAT (leek [5]; variety Shelton, safener oxabetrinil 1 g a.i./kg seed, ioxynil (Totril) 112 g a.i./ha 10 days after seeding): 25%
- Damage to seedling (% collapsed) at 7 DAT (leek [5]; variety Shelton, safener oxabetrinil 2 g a.i./kg seed, ioxynil (Totril) 112 g a.i./ha 10 days after seeding): 27%
- Damage to seedling (% collapsed) at 7 DAT (leek [5]; variety Shelton, safener oxabetrinil 4 g a.i./kg seed, ioxynil (Totril) 112 g a.i./ha 10 days after seeding): 13%
